For assay [1], the target named is recombinant human SOS1 polypeptide (amino acids 560-1049) (Homo sapiens (Human), UniProt Q07889). The assay can be described thus: biochemical. Type of assay: binding. As to conditions: read-out: Ki, Inhibition of Labeled Tracer Binding to SOS1.
Method: The ability of a compound of Formula (I) to bind to SOS1 was measured using a HTRF displacement assay. […] After a 1-hour incubation at room temperature, the HTRF signal was measured using Clairostar plate reader (BMG Labtech) according to the manufacturer's instructions. Excitation filter EX-TR was used, and emission 1 was detected at 650-610 nm and emission 2 detected at 620-610 nm. The HTRF ratio was calculated using the formula: [emission 1/emission 2]*10000.
Background signals were calculated from well with a 10 μM inhibitor, known to inhibit 100% at that concentration. The background subtracted signals were converted to % binding relative to DMSO controls. Data were analyzed using XLFIT software (IDBS) using a Morrison equation for competitive binding and Ki's were generated compound of Formula (I).
A further assay concerns pERK in MKN1 cells. The experiment in a line: cells. The assay is classed as cell-based. The conditions noted are these: Homo sapiens.
The mark [2] stands for this setting: HTRF displacement, Cy5 labelled tracer, Morrison equation for competitive binding.
Where [3] appears, read: MKN-1, pERK inhibition, In-Cell Western, MKN1 or H358 cells (Table 24 does not say which), 0.5-1 hour incubation, read-out: IC50.

Where a name gives a salt, the structure may show the parent alone. Read-outs that look alike come from different tables or passages of the source.

recombinant human SOS1 polypeptide (amino acids 560-1049), sequence (Q07889 560-1049): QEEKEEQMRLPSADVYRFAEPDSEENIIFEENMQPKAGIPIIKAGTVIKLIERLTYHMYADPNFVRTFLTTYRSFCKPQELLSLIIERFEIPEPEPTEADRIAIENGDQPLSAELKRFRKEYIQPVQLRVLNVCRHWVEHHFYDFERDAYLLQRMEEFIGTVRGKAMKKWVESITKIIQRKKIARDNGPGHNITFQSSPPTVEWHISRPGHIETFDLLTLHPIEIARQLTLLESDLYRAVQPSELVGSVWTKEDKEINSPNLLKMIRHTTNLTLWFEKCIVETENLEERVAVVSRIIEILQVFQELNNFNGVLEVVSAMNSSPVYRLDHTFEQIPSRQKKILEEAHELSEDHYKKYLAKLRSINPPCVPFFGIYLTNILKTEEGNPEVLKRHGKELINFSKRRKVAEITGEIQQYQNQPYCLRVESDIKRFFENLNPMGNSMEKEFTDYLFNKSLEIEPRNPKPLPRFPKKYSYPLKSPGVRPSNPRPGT

In general, Ki refers to a measure of affinity in units of concentration, obtained from inhibition or displacement. In general, IC50 refers to the concentration that gives 50% inhibition. Turning to `Cc1c([C@@H](C)Nc2nncc3ccc(N4CC5(CC(N(C)C)C5)C4)cc23)cccc1C(F)(F)F` [Example 1-32, (R)-7-(6-(dimethylamino)-2-azaspiro[3.3]heptan-2-yl)-N-(1-(2-methyl-3-(trifluoromethyl)phenyl)ethyl)phthalazin-1-amine], the Ki in assay [1] (setting [2]) is 0.42 nM. The IC50 in the assay with pERK in MKN1 cells (setting [3]) was 101 nM.

For the compound `Cc1c([C@@H](C)Nc2nnc(C)c3cnc(N4CCN5CCOC[C@@H]5C4)cc23)cccc1C(F)(F)F` [Example 12-14], the Ki in assay [1] (setting [2]) was found to be 0.55 nM. For the same compound, the IC50 in the assay on pERK in MKN1 cells (setting [3]) amounted to 17 nM.

As for `Cc1c([C@@H](C)Nc2nnc(C)c3ccc(N4CCC(N(C)C)C4)cc23)cccc1C(F)(F)F` (stereo in doubt) [Example 10-27, 7-((R)-3-(dimethylamino)pyrrolidin-1-yl)-4-methyl-N-((R)-1-(2-methyl-3-(trifluoromethyl)phenyl)ethyl)phthalazin-1-amine hydrochloride salt], the Ki in assay [1] was found to be 0.46 nM. The midpoint of inhibition in the assay with pERK in MKN1 cells (MKN-1), the IC50, lay at 154 nM.

Take `Cc1c([C@@H](C)Nc2nnc(C)c3ccc(N4CCC5(CCCN5C)CC4)cc23)cccc1C(F)(F)F` [Example 10-19, (R)-4-methyl-N-(1-(2-methyl-3-(trifluoromethyl)phenyl)ethyl)-7-(1-methyl-1,8-diazaspiro[4.5]decan-8-yl)phthalazin-1-amine]: the Ki in assay [1] (setting [2]) was 0.28 nM. The IC50 in the assay on pERK in MKN1 cells (setting [3]) was 69 nM.

Consider `Cc1nnc(N[C@H](C)c2cc(N)cc(C(F)(F)F)n2)c2cc(N3CC4CC(C3)O4)ncc12` [Example 16-13, N-((R)-1-(4-amino-6-(trifluoromethyl)pyridin-2-yl)ethyl)-7-(6-oxa-3-azabicyclo[3.1.1]heptan-3-yl)-4-methylpyrido[3,4-d]pyridazin-1-amine], for which the Ki in assay [1] (setting [2]) was found to be 25.8 nM. Also, the IC50 in the assay on pERK in MKN1 cells (setting [3]) was above 10000 nM.

Turning to `Cc1c([C@@H](C)Nc2nnc(C)c3ccc(N4CCC(N5CCC5)CC4)cc23)cccc1C(F)(F)F` [Example 10-30, (R)-7-(4-(azetidin-1-yl)piperidin-1-yl)-4-methyl-N-(1-(2-methyl-3-(trifluoromethyl)phenyl)ethyl)phthalazin-1-amine hydrochloride salt], in assay [1], the Ki turned out to be 0.41 nM. In addition, the IC50 in the assay with pERK in MKN1 cells (MKN-1) came out at 48 nM.

For `Cc1nnc(N[C@H](C)c2cc(O)cc(C(F)(F)F)c2)c2cc(N3CCOCC3)ncc12` [Example 21-1, (R)-3-(1-((4-methyl-7-morpholinopyrido[3,4-d]pyridazin-1-yl)amino)ethyl)-5-(trifluoromethyl)phenol], the Ki in assay [1] (setting [2]) amounted to 2.93 nM. The IC50 in the assay on pERK in MKN1 cells (setting [3]) came to 77 nM.

In the case of `Cc1c(C#N)cccc1[C@@H](C)Nc1nnc(C)c2ccc(N3CCC(N(C)C)CC3)cc12` [Example 10-57, (R)-3-(1-((7-(4-(dimethylamino)piperidin-1-yl)-4-methylphthalazin-1-yl)amino)ethyl)-2-methylbenzonitrile Formate salt], the Ki in assay [1] was 0.75 nM. Further, half-maximal inhibition in the assay with pERK in MKN1 cells (MKN-1) (IC50) required 46 nM.

Take `Cc1c([C@@H](C)Nc2nnc(C)c3cnc(N4CC5(CCN(C)C5=O)C4)cc23)cccc1C(F)(F)F` [Example 12-16]: the Ki in assay [1] (setting [2]) is 0.87 nM. In the assay on pERK in MKN1 cells (setting [3]), the IC50 worked out at 11 nM.

On to `Cc1c([C@@H](C)Nc2nnc(C)c3ccc(C4CCNC(=O)C4)cc23)cccc1C(F)(F)F` (stereo partly drawn) [Example 10-3, 4-(1-methyl-4-(((R)-1-(2-methyl-3-(trifluoromethyl)phenyl)ethyl)amino)phthalazin-6-yl)piperidin-2-one], for which the Ki in assay [1] (setting [2]) came out at 0.71 nM. Moreover, the IC50 with pERK in MKN1 cells (setting [3]) amounted to 85 nM.

Regarding `Cc1c(C#N)cccc1[C@@H](C)Nc1nnc(C)c2cnc(N3CC4(CCN(C)C4)C3)cc12` [Example 12-51], in assay [1] (setting [2]), the Ki worked out at 0.79 nM. Further, the IC50 in the assay with pERK in MKN1 cells (setting [3]) was determined as 48 nM.

For `Cc1c([C@@H](C)Nc2nncc3ccc(O[C@H]4C[C@H](N(C)C)C4)cc23)cccc1C(F)(F)F` [Example 2-8, 7-((trans)-3-(dimethylamino)cyclobutoxy)-N-((R)-1-(2-methyl-3-(trifluoromethyl)phenyl)ethyl)phthalazin-1-amine], the Ki in assay [1] (setting [2]) turned out to be 2.99 nM. The IC50 in the assay with pERK in MKN1 cells (setting [3]) stood at 148 nM.

Take `Cc1c([C@@H](C)Nc2nnc(CN(C)C)c3cnc(N4C[C@H]5C[C@@H]4CO5)cc23)cccc1C(F)(F)F` [Example 14-6, 7-((1R,4R)-2-oxa-5-azabicyclo[2.2.1]heptan-5-yl)-4-((dimethylamino)methyl)-N-((R)-1-(2-methyl-3-(trifluoromethyl)phenyl)ethyl)pyrido[3,4-d]pyridazin-1-amine]: in assay [1] (setting [2]), the Ki came to 2.56 nM. For the same compound, the IC50 with pERK in MKN1 cells (setting [3]) was determined as 142 nM.

`Cc1c(C#N)cccc1[C@@H](C)Nc1nnc(C)c2ccc(N3C[C@H]4CC[C@@H]3CN4C)cc12` [Example 10-71, 2-methyl-3-((R)-1-((4-methyl-7-((1R,4R)-5-methyl-2,5-diazabicyclo[2.2.2]octan-2-yl)phthalazin-1-yl)amino)ethyl)benzonitrile]: in assay [1] (setting [2]), the Ki came out at 0.39 nM. Moreover, in the assay on pERK in MKN1 cells (setting [3]), the IC50 came out at 19 nM.

In the case of `Cc1c([C@@H](C)Nc2nnc(C)c3ccc(OC4CCNCC4)cc23)cccc1C(F)(F)F` [Example 7-2, (R)-4-methyl-N-(1-(2-methyl-3-(trifluoromethyl)phenyl)ethyl)-7-(piperidin-4-yloxy)phthalazin-1-amine], the Ki in assay [1] (setting [2]) came out at 0.33 nM. Moreover, the IC50 in the assay on pERK in MKN1 cells (setting [3]) was found to be 73 nM.

Consider `Cc1cccc(C(C)Nc2nnc(C)c3ccc(N4CCOCC4)cc23)c1Cl` (stereo not drawn) [Example 10-60, N-(1-(2-chloro-3-methylphenyl)ethyl)-4-methyl-7-morpholinophthalazin-1-amine], for which, in assay [1] (setting [2]), the Ki came out at 2 nM. Moreover, in the assay on pERK in MKN1 cells (setting [3]), the IC50 is 961 nM.

Regarding `Cc1c([C@@H](C)Nc2nnc(C)c3ccc(N4CCC5(CCN(C)C5=O)CC4)cc23)cccc1C(F)(F)F` [Example 10-40, (R)-2-methyl-8-(1-methyl-4-((1-(2-methyl-3-(trifluoromethyl)phenyl)ethyl)amino)phthalazin-6-yl)-2,8-diazaspiro[4.5]decan-1-one], the Ki in assay [1] (setting [2]) came out at 0.43 nM. In the assay on pERK in MKN1 cells (setting [3]), the IC50 turned out to be 11 nM.

`Cc1c([C@@H](C)Nc2nnc(C)c3cnc(N4C[C@H](C)O[C@@H](C)C4)cc23)cccc1C(F)(F)F` [Example 12-6]: the Ki in assay [1] (setting [2]) was found to be 0.87 nM. The IC50 in the assay with pERK in MKN1 cells (setting [3]) was found to be 522 nM.

Turning to `COc1cc2c(N[C@H](C)c3ccc(-c4ccccc4CN(C)C)s3)nnc(C(F)(F)F)c2cc1OC` [Example 5-4, (R)—N-(1-(5-(2-((dimethylamino)methyl)phenyl)thiophen-2-yl)ethyl)-6,7-dimethoxy-4-(trifluoromethyl)phthalazin-1-amine], in assay [1] (setting [2]), the Ki was 47.9 nM. Also, the IC50 with pERK in MKN1 cells (setting [3]) turned out to be 1620 nM.

As to `Cc1c(Cl)cccc1[C@@H](C)Nc1nnc(C)c2cnc(N3CCOCC3)cc12` [Example 6-18, (R)-N-(1-(3-chloro-2-methylphenyl)ethyl)-4-methyl-7-morpholinopyrido[3,4-d]pyridazin-1-amine], in assay [1] (setting [2]), the Ki stood at 317 nM. The IC50 in the assay on pERK in MKN1 cells (setting [3]) was 3700 nM.

For `Cc1c(C#N)cccc1[C@@H](C)Nc1nnc(C)c2ccc(N3CCOCC3)cc12` [Example 10-51, (R)-2-methyl-3-(1-((4-methyl-7-morpholinophthalazin-1-yl)amino)ethyl)benzonitrile], the Ki in assay [1] (setting [2]) is 1.4 nM. Moreover, the IC50 in the assay on pERK in MKN1 cells (setting [3]) is 39 nM.

Regarding `CCc1ccc2c(C)nnc(N[C@H](C)c3ccc(-c4ccccc4CNC)s3)c2c1` [8-2, (R)-7-ethyl-4-methyl-N-(1-(5-(2-((methylamino)methyl)phenyl)thiophen-2-yl)ethyl)phthalazin-1-amine], the inhibition constant (Ki) in assay [1] (setting [2]) was 3.74 nM. For the same compound, the IC50 in the assay with pERK in MKN1 cells (setting [3]) came to 605 nM.

On to `Cc1c([C@@H](C)Nc2nnc(C)c3ccc(OC[C@@H]4CCCN4C)cc23)cccc1C(F)(F)F` [Example 10-24, 4-methyl-N-((R)-1-(2-methyl-3-(trifluoromethyl)phenyl)ethyl)-7-(((S)-1-methylpyrrolidin-2-yl)methoxy)phthalazin-1-amine hydrochloride salt], for which the Ki in assay [1] was determined as 1.34 nM. The compound further registered an IC50 in the assay on pERK in MKN1 cells (MKN-1) of 69 nM.

For `Cc1nnc(N[C@H](C)c2cccc(C(F)(F)F)c2F)c2cc(N3CCNCC3)ncc12` [Example 12-65], in assay [1] (setting [2]), the Ki was 0.72 nM. For the same compound, the IC50 in the assay on pERK in MKN1 cells (setting [3]) worked out at 16 nM.

As to `CNCc1ccccc1-c1ccc([C@@H](C)Nc2nnc(C)c3ccc(C)cc23)s1` [Example 8-1, (R)-4,7-di methyl-N-(1-(5-(2-((methylamino)methyl)phenyl)thiophen-2-yl)ethyl)phthalazin-1-amine], the Ki in assay [1] (setting [2]) came to 1.38 nM. In addition, the IC50 with pERK in MKN1 cells (setting [3]) is 164 nM.

Regarding `Cc1c(C#N)cccc1[C@@H](C)Nc1nnc(CN(C)C)c2cnc(N3C[C@H]4C[C@@H]3CO4)cc12` [Example 14-4, 3-((R)-1-((7-((1R,4R)-2-oxa-5-azabicyclo[2.2.1]heptan-5-yl)-4-((dimethylamino)methyl)pyrido[3,4-d]pyridazin-1-yl)amino)ethyl)-2-methylbenzonitrile], the Ki in assay [1] (setting [2]) is 8.55 nM. The IC50 with pERK in MKN1 cells (setting [3]) came to 89 nM.

In the case of `Cc1c([C@@H](C)Nc2nnc(C)c3cnc(N4CCC(N5CCC5)CC4)cc23)cccc1C(F)(F)F` [Example 12-33], the Ki in assay [1] (setting [2]) turned out to be 0.3 nM. The IC50 in the assay on pERK in MKN1 cells (setting [3]) was 55 nM.

For `Cc1c([C@@H](C)Nc2nnc(C)c3ccc(N4CCNC[C@H](F)C4)cc23)cccc1C(F)(F)F` [Example 10-62, 7-((S)-6-fluoro-1,4-diazepan-1-yl)-4-methyl-N-((R)-1-(2-methyl-3-(trifluoromethyl)phenyl)ethyl)phthalazin-1-amine Hydrochloride salt], the Ki in assay [1] worked out at 0.9 nM. In the assay with pERK in MKN1 cells (MKN-1), the IC50 is 76 nM.

As for `Cc1c(C#N)cccc1[C@@H](C)Nc1nnc(C)c2cnc(N3CCC(C)(O)CC3)cc12` [Example 12-53], in assay [1] (setting [2]), the Ki worked out at 0.83 nM. In addition, the IC50 in the assay with pERK in MKN1 cells (setting [3]) came to 47 nM.

Regarding `Cc1c(C#N)cccc1[C@@H](C)Nc1nnc(C)c2ccc(N3CCC(F)(F)CC3)cc12` [Example 10-67, (R)-3-(1-((7-(4,4-difluoropiperidin-1-yl)-4-methylphthalazin-1-yl)amino)ethyl)-2-methylbenzonitrile], in assay [1] (setting [2]), the Ki is 2.57 nM. Besides, in the assay with pERK in MKN1 cells (setting [3]), the IC50 stood at 44 nM.

The values are drawn from US11702418B2, “SOS1 inhibitors” (priority 2019, dated 2023).
